Results: patent US9688760B2, “Anti-leukocyte adhesion for the mitigation of potential adverse events caused by CD3-specific binding domains” (AMGEN RESEARCH (MUNICH) GMBH, priority 2013, dated 2017)

Tested on: ICAM-1 and P-selectin on HUVEC
Assay: Immunofluorescence staining of HUVEC after T cell-rolling
Format: cell-based, human
Conditions: T cells pre-incubated with 10 ng/ml Blinatumomab vs untouched T cells
Experimental: After rolling and adhesion of T cells on HBMEC or HUVEC under flow conditions, endothelial cells were fixed using 150 μl of 4% paraformaldehyde solution (#P-6148, Sigma-Aldrich) for 30 min at 4° C. μ-slides were rinsed with 150 μl of D-PBS and subjected to immunofluorescence staining. HBMEC were first blocked with 150 μl of avidin blocking reagent (#PHA-70871, reagent 1, Dianova) for 10 min at room temperature, washed with 150 μl of D-PBS followed by incubation with 150 μl of biotin blocking reagent (#PHA-70871, reagent 2, Dianova). All following staining procedures were performed in 150 μl of D-PBS with 5% FBS at room temperature in the dark, and washing steps were done in 150 μl of D-PBS. μ-slides were incubated with 5 μg/ml polyclonal rabbit anti-human VCAM-1 (#106777, abcam) for 1 h. After washing, 20 μg/ml goat anti-rabbit IgG-DyLight350 was added for 1 h followed by washing and incubation with 15 μg/ml mouse anti-human P-selectin IgG1 (#BBA30, R&D Systems) for 2 h. After washing, goat anti-mouse IgG-Alexa488 (1:100) (#A10680, Invitrogen) was added for 1 h. […] VCAM-1 staining was monitored with a CFL EPI-FL Filter Block UV-2A (#MBE41200, Nikon), P-selectin staining with a CFL EPI-FL Filter Block GFP-B (#MBE44740, Nikon), and ICAM-1 staining with an EPI-FL Filter Block Cy3 (#MXU96213, Nikon). […]

“Blinatumomab: recombinant CD19×CD3 bispecific scFv antibody consisting of four immunoglobulin variable domains assembled into a single polypeptide chain” was tested. Which “surface expression of adhesion molecules on HUVEC” value did it give?
Its value is “increased surface expression of adhesion molecules ICAM-1 and P-selectin”.
